Data: patent US11547681B2, “N-acylethanolamide derivatives and uses thereof” (ELIEM THERAPEUTICS, INC., priority 2016, dated 2023)

How the values were obtained:
[1] = in vitro; conditions: male, Sprague-Dawley, rat; for Concentration (μM) of analyte PEA, 0 min / Concentration of analyte I-9 / Concentration of analyte PEA / Concentration (μM) of analyte PEA, 10 min / Concentration (μM) of analyte PEA, 20 min / Concentration (μM) of analyte PEA, 30 min / Concentration (μM) of analyte PEA, 60 min / % Remaining of Initial (n = 1) / % Remaining of Initial (n = 1), 0 min / % Remaining of Initial (n = 1), 10 min / % Remaining of Initial (n = 1), 20 min / % Remaining of Initial (n = 1), 30 min / % Remaining of Initial (n = 1), 60 min: 1 μM
Method: (§1) The reaction mixture, minus cofactors, was prepared as described below. The test article was added into the reaction mixture at a final concentration of 1 μM. […] An aliquot of the reaction mixture (without cofactor cocktail) was equilibrated in a shaking water bath at 37° C. for 3 minutes. The reaction was initiated by the addition of cofactor cocktail, and the mixture was incubated in a shaking water bath at 37° C. Aliquots (100 μL) were withdrawn at 0, 10, 20, 30, and 60 minutes. All samples were immediately combined with 400 uL of icecold 50/50 acetonitrile/H2O containing 0.1% formic acid and internal standard to terminate the reaction. The samples were then mixed and centrifuged to precipitate proteins. Calibration standards were prepared in matched matrix. All samples and standards were assayed by LC-MS/MS using electrospray ionization for both the dosed prodrug I-9 and the expected drug (PEA). Analytical conditions are outlined in Appendix 4-1. The test article concentration at each time point was compared to the test article concentration at time 0 to determine the percent remaining at each time point. Half-lives were calculated using GraphPad software, fitting to single-phase exponential decay equation.
(§2) Reaction mixture, minus cofactors, was prepared as described below. Test article was added into the reaction mixture at a final concentration of 1 μM. […] An aliquot of the reaction mixture (without cofactor cocktail) was equilibrated in a shaking water bath at 37° C. for 3 minutes. The reaction was initiated by the addition of cofactor cocktail, and the mixture was incubated in a shaking water bath at 37° C. Aliquots (100 μL) were withdrawn at 0, 10, 20, 30, and 60 minutes. Test article samples were immediately combined with 300 μL of ice-cold acetonitrile containing 1% formic acid. Control samples were immediately combined with 400 μL of ice-cold 50/50 acetonitrile (ACN)/dH2O containing 0.1% formic acid and internal standard to terminate the reaction. Samples were then mixed and centrifuged to precipitate proteins. Calibration standards were prepared in matched matrix. Samples and standards were assayed by LC-MS/MS using electrospray ionization for both the dosed prodrug and the expected drug (PEA). Analytical conditions are outlined in Appendix 8-1. Test article concentration at each time point was compared to test article concentration at time 0 to determine the percent remaining at each time point. Halflives were calculated using GraphPad software, fitting to a single-phase exponential decay equation.
as §2, with “for 5” for “for 3”, “minutes. Reaction” for “minutes. The reaction”, “and” for “and the”, “both” for “both the”, “Appendix 10-1.” for “Appendix 8-1.”
(§3) Reaction mixture, minus cofactors, was prepared as described below.

[2] = in vitro; conditions: both, human; for Concentration (μM) of analyte PEA, 0 min / Concentration of analyte I-9 / Concentration of analyte PEA / Concentration (μM) of analyte PEA, 10 min / Concentration (μM) of analyte PEA, 20 min / Concentration (μM) of analyte PEA, 30 min / Concentration (μM) of analyte PEA, 60 min / % Remaining of Initial (n = 1) / % Remaining of Initial (n = 1), 0 min / % Remaining of Initial (n = 1), 10 min / % Remaining of Initial (n = 1), 20 min / % Remaining of Initial (n = 1), 30 min / % Remaining of Initial (n = 1), 60 min: 1 μM; for % Remaining of Initial (n = 1), 30 min: s9, 0.5 h
Method: as §1, §2
as §2, with “for 5” for “for 3”, “minutes. Reaction” for “minutes. The reaction”, “and” for “and the”, “both” for “both the”, “Appendix 10-1.” for “Appendix 8-1.”
as §3

CCCCCCCCCCCCCCCC(=O)NCCOC(=O)CCC(=O)OCC(O)CO (stereo not shown) [Compound I-9]
Concentration (μM) of analyte PEA, 0 min ([1]; 0 min): 0.034 µM | Concentration of analyte I-9 ([1]; 0 min): 0.77 µM | Concentration of analyte PEA ([1]; 0 min): 0.031 µM | Concentration (μM) of analyte PEA, 10 min ([1]; 10 min): 0.22 µM | Concentration of analyte I-9 ([1]; 10 min): 0.91 µM | Concentration of analyte PEA ([1]; 10 min): 0.088 µM | Concentration (μM) of analyte PEA, 20 min ([1]; 20 min): 0.31 µM | Concentration of analyte I-9 ([1]; 20 min): 0.68 µM | Concentration of analyte PEA ([1]; 20 min): 0.13 µM | Concentration (μM) of analyte PEA, 30 min ([1]; 30 min): 0.36 µM | Concentration of analyte I-9 ([1]; 30 min): 0.58 µM | Concentration of analyte PEA ([1]; 30 min): 0.16 µM | Concentration (μM) of analyte PEA, 60 min ([1]; 60 min): 0.39 µM | Concentration of analyte I-9 ([1]; 60 min): 0.38 µM | Concentration of analyte PEA ([1]; 60 min): 0.24 µM | % Remaining of Initial (n = 1) ([1]; s9, 0 h): 100% | % Remaining of Initial (n = 1), 0 min ([1]; s9, 0 h): 100% | % Remaining of Initial (n = 1) ([1]; s9, 10 min): 119% | % Remaining of Initial (n = 1), 10 min ([1]; s9, 10 min): 45% | % Remaining of Initial (n = 1) ([1]; s9, 20 min): 88% | % Remaining of Initial (n = 1), 20 min ([1]; s9, 20 min): 26% | % Remaining of Initial (n = 1) ([1]; s9, 0.5 h): 75% | % Remaining of Initial (n = 1), 30 min ([1]; s9, 0.5 h): 15% | % Remaining of Initial (n = 1) ([1]; s9, 1 h): 49% | % Remaining of Initial (n = 1), 60 min ([1]; s9, 1 h): 3.6% | microsomal CLint at 1 μM ([1]; s9, CLint): 125 µL/min/mg | half-life at 1 μM ([1]; s9, Half-life): 55 min | Concentration (μM) of analyte PEA, 0 min ([2]; 0 min): 0.048 µM | Concentration of analyte I-9 ([2]; 0 min): 0.61 µM | Concentration of analyte PEA ([2]; 0 min): 0.21 µM | Concentration (μM) of analyte PEA, 10 min ([2]; 10 min): 0.18 µM | Concentration of analyte I-9 ([2]; 10 min): 0.36 µM | Concentration of analyte PEA ([2]; 10 min): 0.50 µM | Concentration (μM) of analyte PEA, 20 min ([2]; 20 min): 0.23 µM | Concentration of analyte I-9 ([2]; 20 min): 0.099 µM | Concentration of analyte PEA ([2]; 20 min): 0.69 µM | Concentration (μM) of analyte PEA, 30 min ([2]; 30 min): 0.22 µM | Concentration of analyte I-9 ([2]; 30 min): 0.029 µM | Concentration of analyte PEA ([2]; 30 min): 0.65 µM | Concentration (μM) of analyte PEA, 60 min ([2]; 60 min): 0.18 µM | Concentration of analyte I-9 ([2]; 60 min): 0.0043 µM | Concentration of analyte PEA ([2]; 60 min): 0.66 µM | % Remaining of Initial (n = 1) ([2]; s9, 0 h): 100% | % Remaining of Initial (n = 1), 0 min ([2]; s9, 0 h): 100% | % Remaining of Initial (n = 1) ([2]; s9, 10 min): 59% | % Remaining of Initial (n = 1), 10 min ([2]; s9, 10 min): 28% | % Remaining of Initial (n = 1) ([2]; s9, 20 min): 16% | % Remaining of Initial (n = 1), 20 min ([2]; s9, 20 min): 5.7% | % Remaining of Initial (n = 1), 30 min [2]: 1.2% | % Remaining of Initial (n = 1) ([2]; s9, 1 h): <1.0% | % Remaining of Initial (n = 1), 60 min ([2]; s9, 1 h): <1.0% | microsomal CLint at 1 μM ([2]; s9, CLint): > 69.3 µL/min/mg | microsomal CLint at 1 μM ([2]; s9, CLint (mL/min/mg protein)): 131 µL/min/mg | microsomal CLint at 1 μM ([2]; s9, CLint, calculated value in parentheses): 75.3 µL/min/mg | half-life at 1 μM ([2]; s9, Half-Life, calculated value in parentheses): 9.2 min | half-life at 1 μM ([2]; s9, Half-life): < 10 min | half-life at 1 μM ([2]; s9, Half-life (min)): 5.3 min

CCCCCCCCCCCCCCCC(=O)NCCOC(=O)CCC(=O)OCC(COC(=O)CCC)OC(=O)CCC (stereo not shown) [Compound I-11]
Concentration (μM) of analyte PEA, 0 min ([1]; 0 min): 0 µM | Concentration (μM) of analyte PEA, 10 min ([1]; 10 min): 0.13 µM | Concentration (μM) of analyte PEA, 20 min ([1]; 20 min): 0.24 µM | Concentration (μM) of analyte PEA, 30 min ([1]; 30 min): 0.35 µM | Concentration (μM) of analyte PEA, 60 min ([1]; 60 min): 0.38 µM | % Remaining of Initial (n = 1), 0 min ([1]; s9, 0 h): 100% | % Remaining of Initial (n = 1), 10 min ([1]; s9, 10 min): 1.4% | % Remaining of Initial (n = 1), 20 min ([1]; s9, 20 min): <1.0% | % Remaining of Initial (n = 1), 30 min ([1]; s9, 0.5 h): <1.0% | % Remaining of Initial (n = 1), 60 min ([1]; s9, 1 h): <1.0% | microsomal CLint at 1 μM ([1]; s9, CLint (mL/min/mg protein)): 425 µL/min/mg | half-life at 1 μM ([1]; s9, Half-life (min)): 1.6 min | Concentration (μM) of analyte PEA, 0 min ([2]; 0 min): 0.018 µM | Concentration (μM) of analyte PEA, 10 min ([2]; 10 min): 0.13 µM | Concentration (μM) of analyte PEA, 20 min ([2]; 20 min): 0.20 µM | Concentration (μM) of analyte PEA, 30 min ([2]; 30 min): 0.21 µM | Concentration (μM) of analyte PEA, 60 min ([2]; 60 min): 0.18 µM | % Remaining of Initial (n = 1), 0 min ([2]; s9, 0 h): 100% | % Remaining of Initial (n = 1), 10 min ([2]; s9, 10 min): 4.1% | % Remaining of Initial (n = 1), 20 min ([2]; s9, 20 min): 1.2% | % Remaining of Initial (n = 1), 30 min [2]: <1.0% | % Remaining of Initial (n = 1), 60 min ([2]; s9, 1 h): <1.0%
